Results published in ChEMBL document CHEMBL4177659, “Two new dammarane-type triterpene saponins from Korean red ginseng and their anti-inflammatory effects” (Bioorg Med Chem Lett, 2017).
Calls of active or inactive are those of the source.

What was measured:
Assay type in all cases: functional, cell-based
RAW264.7 [1] = assay: Antiinflammatory activity against mouse RAW264.7 cells assessed as inhibition of LPS induced iNOS expression at 20 uM preincubated for 2 hrs followed by LPS challenge measured after 24 hrs by Western blot method
RAW264.7 [2] = assay: Antiinflammatory activity against mouse RAW264.7 cells assessed as inhibition of LPS induced cox-2 expression at 20 uM preincubated for 2 hrs followed by LPS challenge measured after 24 hrs by Western blot method
RAW264.7 [3] = assay: Antiinflammatory activity against mouse RAW264.7 cells assessed as inhibition of LPS induced TNFalpha release preincubated for 2 hrs followed by LPS challenge measured after 24 hrs by sandwich ELISA
RAW264.7 [4] = assay: Antiinflammatory activity against mouse RAW264.7 cells assessed as inhibition of LPS induced iNOS expression at 10 uM preincubated for 2 hrs followed by LPS challenge measured after 24 hrs by Western blot method
RAW264.7 [5] = assay: Antiinflammatory activity against mouse RAW264.7 cells assessed as inhibition of LPS induced IL-6 release 10 uM preincubated for 2 hrs followed by LPS challenge measured after 24 hrs by sandwich ELISA
RAW264.7 [6] = assay: Antiinflammatory activity against mouse RAW264.7 cells assessed as inhibition of LPS induced cox-2 expression at 10 uM preincubated for 2 hrs followed by LPS challenge measured after 24 hrs by Western blot method

Measured: Activity

Cc1ccc(-c2cc(C(F)(F)F)nn2-c2ccc(S(N)(=O)=O)cc2)cc1
active: RAW264.7 [1] | RAW264.7 [2]

CC(C)=CCC[C@@](C)(O)[C@H]1CC[C@]2(C)[C@@H]1[C@H](O)C[C@@H]1[C@@]3(C)CCC(=O)C(C)(C)[C@@H]3[C@@H](O[C@@H]3O[C@H](CO)[C@@H](O)[C@H](O)[C@H]3O)C[C@]12C
active: RAW264.7 [3] Dose-dependent effect | RAW264.7 [4] | RAW264.7 [5] | RAW264.7 [6]
